Measured values: patent US11999715B2, “ASK1 inhibiting agents” (BIOGEN MA INC., priority 2018, dated 2024)

Columns and labels:
[1] = target: T1, ASK1/MAP3K5 (Homo sapiens, UniProt Q99683); assay: ASK1/MAP3K5 kinase assay by Reaction Biology Corp. (headed ASK1 TR-FRET Assay); format: biochemical; settings: 20 μM myelin basic protein, 10 μM ATP, class symbols
T1 sequence (Q99683 1-1374): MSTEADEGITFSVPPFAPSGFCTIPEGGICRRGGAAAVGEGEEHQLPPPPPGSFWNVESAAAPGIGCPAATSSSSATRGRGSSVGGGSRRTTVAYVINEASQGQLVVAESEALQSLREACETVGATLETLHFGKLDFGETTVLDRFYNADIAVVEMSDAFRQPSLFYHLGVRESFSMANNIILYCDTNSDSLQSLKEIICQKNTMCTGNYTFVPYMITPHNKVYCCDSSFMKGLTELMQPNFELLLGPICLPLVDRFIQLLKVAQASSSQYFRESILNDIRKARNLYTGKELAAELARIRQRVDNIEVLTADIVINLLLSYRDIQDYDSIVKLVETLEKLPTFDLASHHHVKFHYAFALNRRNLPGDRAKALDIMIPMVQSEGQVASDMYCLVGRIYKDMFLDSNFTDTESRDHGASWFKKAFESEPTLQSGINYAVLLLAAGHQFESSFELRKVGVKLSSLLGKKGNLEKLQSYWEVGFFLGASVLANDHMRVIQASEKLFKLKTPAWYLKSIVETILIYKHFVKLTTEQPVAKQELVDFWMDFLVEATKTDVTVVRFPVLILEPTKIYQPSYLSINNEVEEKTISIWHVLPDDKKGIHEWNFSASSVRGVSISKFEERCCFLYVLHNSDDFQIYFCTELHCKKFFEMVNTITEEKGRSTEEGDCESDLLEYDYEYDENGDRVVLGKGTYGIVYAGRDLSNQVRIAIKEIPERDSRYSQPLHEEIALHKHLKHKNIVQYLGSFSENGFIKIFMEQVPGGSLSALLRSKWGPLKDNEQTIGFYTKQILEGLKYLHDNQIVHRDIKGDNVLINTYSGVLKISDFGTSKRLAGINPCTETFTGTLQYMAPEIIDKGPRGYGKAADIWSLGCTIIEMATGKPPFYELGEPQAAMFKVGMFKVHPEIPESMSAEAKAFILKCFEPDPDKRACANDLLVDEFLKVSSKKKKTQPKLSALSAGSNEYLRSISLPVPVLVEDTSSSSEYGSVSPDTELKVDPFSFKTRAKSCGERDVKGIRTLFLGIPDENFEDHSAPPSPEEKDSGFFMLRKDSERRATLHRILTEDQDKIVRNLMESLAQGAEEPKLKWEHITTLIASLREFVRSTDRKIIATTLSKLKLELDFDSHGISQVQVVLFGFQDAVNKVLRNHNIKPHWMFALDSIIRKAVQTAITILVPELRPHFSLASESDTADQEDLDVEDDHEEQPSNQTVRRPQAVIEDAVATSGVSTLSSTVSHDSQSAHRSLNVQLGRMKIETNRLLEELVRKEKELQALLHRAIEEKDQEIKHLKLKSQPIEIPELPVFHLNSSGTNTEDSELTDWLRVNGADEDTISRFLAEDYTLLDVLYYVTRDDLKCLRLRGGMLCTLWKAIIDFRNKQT
How it was run: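 Radiometric filter-binding assay with ASK1/MAP3K5, 20 μM MBP substrate and 10 μM ATP plus ^33P-ATP in HEPES pH 7.5 buffer with 1% DMSO. Compounds were preincubated with kinase 20 min, and the reaction then ran 2 hours at room temperature.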

[2] = target: T2, ASK1 T838 auto phosphorylation (Homo sapiens, UniProt Q99683); assay: ASK1 (AUTO PHOS T838) assay, MSD format, in HEK-293T cells transfected with ASK1-V5; format: cell-based; settings: ASK1 T838 auto phosphorylation in HEK-293T cells, 1 hr compound incubation; class symbols
T2 sequence (Q99683 1-1374): T1 sequence (Q99683 1-1374)
How it was run: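 HEK-293T cells transiently transfected with full-length ASK1-V5 plasmid were replated, then treated 1 h at 37 °C with a 10-point, 3-fold series from 20 μM. Lysates were probed by MSD with anti-pASK1 T838 and a sulfo-tag secondary, read by chemiluminescence. IC50 came from a 4-parameter fit of normalized % activity.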

| Compound | IC50 [1] [nM] | IC50 [2] [nM] |
| --- | --- | --- |
| COc1nn(-c2cncc(O)c2)cc1C(=O)Nc1cccc(-c2nncn2C(C)C)n1 [Example 70, 1-(5-Hydroxypyridin-3-yl)-N-(6-(4-isopropyl-4H-1,2,4-triazol-3-yl)pyridin-2-yl)-3-methoxy-1H-pyrazole-4-carboxamide] | ≤ 100 | 1000 to 10000 |
| COc1cncc(-n2cc(C(=O)Nc3cccc(-c4nncn4C(C)C)n3)c(OC)n2)c1 [Example 71, N-(6-(4-Isopropyl-4H-1,2,4-triazol-3-yl)pyridin-2-yl)-3-methoxy-1-(5-methoxypyridin-3-yl)-1H-pyrazole-4-carboxamide] | ≤ 100 | ≤ 1000 |
| COc1nn(-c2cncc(OC(C)C)c2)cc1C(=O)Nc1cccc(-c2nncn2C(C)C)n1 [Example 72, 1-(5-Isopropoxypyridin-3-yl)-N-(6-(4-isopropyl-4H-1,2,4-triazol-3-yl)pyridin-2-yl)-3-methoxy-1H-pyrazole-4-carboxamide] | ≤ 100 | ≤ 1000 |
| CC(C)n1cnnc1-c1cccc(NC(=O)c2cn(-c3cncc(Br)c3)nc2C(F)F)n1 [Example 74, 1-(5-Bromopyridin-3-yl)-3-(difluoromethyl)-N-(6-(4-isopropyl-4H-1,2,4-triazol-3-yl)pyridin-2-yl)-1H-pyrazole-4-carboxamide] | ≤ 100 | ≤ 1000 |
| Cc1cncc(-n2cc(C(=O)Nc3cccc(-c4nncn4C(C)C)n3)c(C(F)F)n2)c1 [Example 75, 3-(Difluoromethyl)-N-(6-(4-isopropyl-4H-1,2,4-triazol-3-yl)pyridin-2-yl)-1-(5-methylpyridin-3-yl)-1H-pyrazole-4-carboxamide] | ≤ 100 | ≤ 1000 |
| CC(C)n1cnnc1-c1cccc(NC(=O)c2cn(-c3cncc(C#N)c3)nc2C(F)F)n1 [Example 76, 1-(5-Cyanopyridin-3-yl)-3-(difluoromethyl)-N-(6-(4-isopropyl-4H-1,2,4-triazol-3-yl)pyridin-2-yl)-1H-pyrazole-4-carboxamide] | ≤ 100 | ≤ 1000 |
| CC(C)n1cnnc1-c1cccc(NC(=O)c2cn(-c3cncc(C4CC4)c3)nc2C(F)F)n1 [Example 77, 1-(5-Cyclopropylpyridin-3-yl)-3-(difluoromethyl)-N-(6-(4-isopropyl-4H-1,2,4-triazol-3-yl)pyridin-2-yl)-1H-pyrazole-4-carboxamide] | ≤ 100 | ≤ 1000 |
| COc1cncc(-n2cc(C(=O)Nc3cccc(-c4nncn4C(C)C)n3)c(C(F)F)n2)c1 [Example 78, 3-(Difluoromethyl)-N-(6-(4-isopropyl-4H-1,2,4-triazol-3-yl)pyridin-2-yl)-1-(5-methoxypyridin-3-yl)-1H-pyrazole-4-carboxamide] | ≤ 100 | ≤ 1000 |
| CC(C)n1cnnc1-c1cccc(NC(=O)c2cn(-c3cncc(N(C)C)c3)nc2C(F)F)n1 [Example 79, 3-(Difluoromethyl)-1-(5-(dimethylamino)pyridin-3-yl)-N-(6-(4-isopropyl-4H-1,2,4-triazol-3-yl)pyridin-2-yl)-1H-pyrazole-4-carboxamide] | ≤ 100 | ≤ 1000 |
| CC(C)n1cnnc1-c1cccc(NC(=O)c2cn(-c3cncc(O)c3)nc2C(F)F)n1 [Example 80, 3-(Difluoromethyl)-1-(5-hydroxypyridin-3-yl)-N-(6-(4-isopropyl-4H-1,2,4-triazol-3-yl)pyridin-2-yl)-1H-pyrazole-4-carboxamide] | ≤ 100 | ≤ 1000 |
| CC(C)Oc1cncc(-n2cc(C(=O)Nc3cccc(-c4nncn4C(C)C)n3)c(C(F)F)n2)c1 [Example 81, 3-(Difluoromethyl)-1-(5-isopropoxypyridin-3-yl)-N-(6-(4-isopropyl-4H-1,2,4-triazol-3-yl)pyridin-2-yl)-1H-pyrazole-4-carboxamide] | ≤ 100 | ≤ 1000 |
| CC(C)n1cnnc1-c1cccc(NC(=O)c2cn(-c3cccnc3)nc2C(F)F)n1 [Example 82, 3-(Difluoromethyl)-N-(6-(4-isopropyl-4H-1,2,4-triazol-3-yl)pyridin-2-yl)-1-(pyridin-3-yl)-1H-pyrazole-4-carboxamide] | ≤ 100 | ≤ 1000 |
| COc1nn(-c2cccnn2)cc1C(=O)Nc1cccc(-c2nncn2C(C)C)n1 [Example 84, N-(6-(4-Isopropyl-4H-1,2,4-triazol-3-yl)pyridin-2-yl)-3-methoxy-1-(pyridazin-3-yl)-1H-pyrazole-4-carboxamide] | ≤ 100 | ≤ 1000 |
| COc1nn(-c2cccnn2)cc1C(=O)Nc1cccc(-c2nncn2[C@@H](C)C(F)(F)F)n1 [Example 85, (S)-3-Methoxy-1-(pyridazin-3-yl)-N-(6-(4-(1,1,1-trifluoropropan-2-yl)-4H-1,2,4-triazol-3-yl)pyridin-2-yl)-1H-pyrazole-4-carboxamide] | ≤ 100 | ≤ 1000 |
| COc1nn(-c2cccnn2)cc1C(=O)Nc1cccc(-c2nncn2[C@H](C)C(F)(F)F)n1 [Example 86, (R)-3-Methoxy-1-(pyridazin-3-yl)-N-(6-(4-(1,1,1-trifluoropropan-2-yl)-4H-1,2,4-triazol-3-yl)pyridin-2-yl)-1H-pyrazole-4-carboxamide] | 100 to 1000 | 1000 to 10000 |
| COc1nn(-c2cnccn2)cc1C(=O)Nc1cccc(-c2nncn2[C@@H](C)C(F)(F)F)n1 [Example 87, (S)-3-Methoxy-1-(pyrazin-2-yl)-N-(6-(4-(1,1,1-trifluoropropan-2-yl)-4H-1,2,4-triazol-3-yl)pyridin-2-yl)-1H-pyrazole-4-carboxamide] | ≤ 100 | ≤ 1000 |
| COc1nn(-c2cnccn2)cc1C(=O)Nc1cccc(-c2nncn2[C@H](C)C(F)(F)F)n1 [Example 88, (R)-3-Methoxy-1-(pyrazin-2-yl)-N-(6-(4-(1,1,1-trifluoropropan-2-yl)-4H-1,2,4-triazol-3-yl)pyridin-2-yl)-1H-pyrazole-4-carboxamide] | 100 to 1000 | 1000 to 10000 |
| C[C@H](n1cnnc1-c1cccc(NC(=O)c2cn(-c3cnccn3)nc2C(F)F)n1)C(F)(F)F [Example 89, (S)-3-(Difluoromethyl)-1-(pyrazin-2-yl)-N-(6-(4-(1,1,1-trifluoropropan-2-yl)-4H-1,2,4-triazol-3-yl)pyridin-2-yl)-1H-pyrazole-4-carboxamide] | ≤ 100 | ≤ 1000 |
| COCCn1cc(C(=O)Nc2cccc(-c3cncn3C(C)C)n2)c(OC)n1 [Example 92, N-(6-(1-Isopropyl-1H-imidazol-5-yl)pyridin-2-yl)-3-methoxy-1-(2-methoxyethyl)-1H-pyrazole-4-carboxamide] | ≤ 100 | ≤ 1000 |
| Cc1cncc(-n2cc(C(=O)Nc3cccc(-c4cncn4C(C)C)n3)c(C(F)F)n2)c1 [Example 93, 3-(Difluoromethyl)-N-(6-(1-isopropyl-1H-imidazol-5-yl)pyridin-2-yl)-1-(5-methylpyridin-3-yl)-1H-pyrazole-4-carboxamide] | ≤ 100 | ≤ 1000 |
| CC(C)n1cncc1-c1cccc(NC(=O)c2cn(-c3cccnc3)nc2C(F)F)n1 [Example 94, 3-(Difluoromethyl)-N-(6-(1-isopropyl-1H-imidazol-5-yl)pyridin-2-yl)-1-(pyridin-3-yl)-1H-pyrazole-4-carboxamide] | ≤ 100 | ≤ 1000 |
| CC(C)n1cncc1-c1cccc(NC(=O)c2cn(-c3cncc(C#N)c3)nc2C(F)F)n1 [Example 95, 1-(5-Cyanopyridin-3-yl)-3-(difluoromethyl)-N-(6-(1-isopropyl-1H-imidazol-5-yl)pyridin-2-yl)-1H-pyrazole-4-carboxamide] | ≤ 100 | ≤ 1000 |
